Experimental data as given in patent publication US20150038707A1, “PROCESS FOR MAKING CGRP RECEPTOR ANTAGONISTS” (Merck Sharp & Dohme Corp., priority 2012, published 2015).
Where “and” joins values, the source holds several entries; their conditions need not be identical. Identical values can stand only once.

Experiments:
Ae. aegypti mosquitoes = assay: Compound residual life: spatial repellency (Example 9); type: in vivo
Procedure: (§1) The four compounds of formula I described in Example 2 were tested for spatial repellency (directed movement away from the chemical source without the insect making physical contact with the treated surface) at low doses on female Aedes aegypti (Thailand strain) mosquitoes. The spatial repellency response was determined by use of the spatial repellency assay disclosed by Grieco et al. in “A New Classification System for the Actions of IRS Chemicals Traditionally Used for Malaria Control” in Plos One, Issue 8 (2007) (available at www.plosone.org) which is incorporated herein by reference for all relevant and consistent purposes. The assay used was a cylindrical assembly that included a treatment chamber at one end and a control chamber at the other end. The treatment chamber included a netting strip (nylon organdy) that was treated with the insecticide of interest at the relevant dose. The treatment chamber and control chamber were connected by a clear cylinder and were separated from the clear cylinder by butterfly valves. Twenty (20) mosquitoes were introduced into the clear central chamber and the butterfly valves were opened after 30 seconds. After 10 minutes, the valves were closed and the number of mosquitoes in each chamber was counted.
The spatial repellency assay of Example 3 was used to determine the residual life of compound 1405 on Ae. aegypti mosquitoes. Compound 1405 (neat, suspended in acetone) was applied by pipette to the netting material and the netting material was maintained at room temperature. The assay was performed at 0, 24 and 48 hours.
Nets were treated and tested at times 0 hour, 24 hour and 48 hour. The nets were held at room temperature between tests. The spatial activity index (“SAI” which varies from −1 to 1 with zero (0) indicating no response) and spatial repellency (SR) were determined. SAI is the measure of the proportion of females in the control chamber over the treated chamber after correcting for the proportion of females in the control chamber.

mosquitoes (Ae. aegypti) = assay: Compound residual life: contact irritancy (Example 10); type: in vivo; conditions: for Number escaping (mean +/- SE), treated: 10 mosquitoes per run, 6 runs per net sample
Procedure: Four compounds of formula (I) were tested for contact irritancy (i.e., movement away from the source after physical contact) at low doses on female Aedes aegypti (Thailand strain) mosquitoes. The contact irritant response was determined by use of the contact irritant assay disclosed by Grieco et al. in “A New Classification System for the Actions of IRS Chemicals Traditionally Used for Malaria Control,” Plos One, Issue 8 (2007) (available at www.plosone.org). The assay used was a cylindrical assembly that included a metal treatment end to which 10 mosquitoes were introduced and a clear receiving chamber. The treatment end included a netting strip (nylon organdy) that was treated with the insecticide of interest at the relevant dose. A butterfly valve separated the treatment end from the remainder of the assembly.
Contact irritancy tests (blind testing) were performed for several samples of compounds 1405 and 1406 at 0 weeks, 2 weeks, 4 weeks, 8 weeks and 12 weeks to determine the residual contact irritancy of the compounds on mosquitoes (Ae. aegypti). Between testing, the nets were hung in the lab and held at a temperature of 27-29° C. and 56-67% relative humidity. Each run was performed 6 times for each sample with 10 mosquitoes used in each run (60 mosquitoes total).

[1] = tested on: female Aedes aegypti (Thailand strain) mosquitoes; assay: Spatial repellency assay on mosquitoes (Example 3); type: in vivo; conditions: netting treated at 0.0025-2.5 nmol/cm^2
Procedure: as §1
The compositions were applied to the net strips by the same methods and at the same concentrations as described in Example 2 above. […]

An. Vestitipennis = assay: Repellency field studies in experimental huts, Belize (Example 12); type: in vivo; conditions: for Reduction (%) vs control hut / Number Collected in Entrance: 2.5 nmole; for Number Collected in Entrance: treated hut
Procedure: Compound 1405 was tested in field studies in Belize at a concentration of 2.5 nmole/cm^2. The field studies involved use of huts that were equipped with entrance and exit traps. The hut design and collection procedures correspond to those disclosed by Suwonkerd et al. in “The Effect of Host Type on Movement Patters of Aedes aegypti (Diptera: Culicidae) into and out of Experimental Huts in Thailand,” J. Vector. Ecol., vol. 31 (2), p. 311-318 (2006) which is incorporated herein by reference for all relevant and consistent purposes. The huts were equipped with entrance and/or exit traps at entry and exit points (e.g., windows and doors). The huts were randomized and designated as control (no treatment) or treated (with some intervention being evaluated). The relative numbers of mosquitoes entering or leaving the treated vs. control huts was determined. An. Vestitipennis, An. Albimanus, An. Punctimacula, An. Crucians and a large number of other culicines were collected in the traps. An. Vestitipennis comprised the majority of what was collected.

KDR Resisant An. Gambiae = assay: Bottle toxicity assay (Example 8), knockdown resistant mosquitoes; type: in vivo, Anopheles gambiae
Procedure: Several compounds were tested to determine their toxic effect on knockdown resistant Anopheles gambiae mosquitoes and susceptible mosquitoes. Acetone and different amounts of pesticides were added to 250 ml bottles. In one bottle, only acetone was added as a control. The bottles were rotated in all directions while uncapped until all acetone was evaporated and the insecticide was coated onto the inside surfaces of the bottle. A number of knockdown resistant Anopheles gambiae mosquitoes were added to the bottle. The number of dead mosquitoes was recorded at 1 hour and 24 hours.

[2] = Dose 2.5, Time 0 hr after net treatment
[3] = Dose 2.5, Time 24 hr after net treatment
[4] = Dose 25, Time 0 hr after net treatment
[5] = Dose 25, Time 24 hr after net treatment
[6] = Dose 25, Time 48 hr after net treatment

## CC1(C)C(C=C(Cl)C(F)(F)F)C1C(=O)OCc1ccc(F)c(C(F)(F)F)c1F (centres unmarked) [Compound 1405]
Ae. aegypti mosquitoes; [2]
  SAI (SE) (spatial activity index, -1 to 1): 0.5(0.1)
  SR (spatial repellency): 21.5
Ae. aegypti mosquitoes; [3]
  SAI (SE) (spatial activity index, -1 to 1): 0.3(0.1)
  SR (spatial repellency): 18
Ae. aegypti mosquitoes; [4]
  SAI (SE) (spatial activity index, -1 to 1): 0.3(0.1)
  SR (spatial repellency): 21.5
Ae. aegypti mosquitoes; [5]
  SAI (SE) (spatial activity index, -1 to 1): 0.5(0.1)
  SR (spatial repellency): 22.5
Ae. aegypti mosquitoes; [6]
  SAI (SE) (spatial activity index, -1 to 1): 0.4(0.1)
  SR (spatial repellency): 22.5
Mosquitoes (Ae. aegypti); Time 0 week
  Percent escaping (mean ± SE): 90 ± 5% and 80 ± 5% and 85 ± 4% and 88 ± 5%
Mosquitoes (Ae. aegypti); Time 2 week
  Percent escaping (mean ± SE): 47 ± 6% and 42 ± 7% and 47 ± 3% and 47 ± 4%
  Number escaping (mean +/- SE), treated: 1.7 ± 0.6 and 2.2 ± 0.7 and 1.7 ± 0.4
Mosquitoes (Ae. aegypti); Time 8 week
  Number escaping (mean +/- SE), treated: 1.8 ± 0.5 and 2.2 ± 0.5 and 1.8 ± 0.9 and 1.5 ± 0.6
[1]
  spatial repellency, dose compared with DDT (FIG. 2): showed repellency at a lower dose than DDT
An. Vestitipennis; 2.5 nmole/cm^2, four day study
  effectiveness as a repellent in field huts (FIGS. 6-9): extremely effective as a repellent
An. Vestitipennis; Day 1
  Reduction (%) vs control hut: 97%
  Number Collected in Entrance: 37
An. Vestitipennis; Day 2
  Reduction (%) vs control hut: 84%
  Number Collected in Entrance: 99
An. Vestitipennis; Day 3
  Reduction (%) vs control hut: 66%
  Number Collected in Entrance: 173
An. Vestitipennis; Day 4
  Reduction (%) vs control hut: 65%
  Number Collected in Entrance: 232
An. Vestitipennis; Total of days 1-4
  Reduction (%) vs control hut: 82%
  Number Collected in Entrance: 541
KDR Resisant An. Gambiae; Dose 0.00025 μg/bottle, Strain Tested F123, Time 1 hour
  KDR Resisant An. Gambiae (% dead (SE)): 55%
KDR Resisant An. Gambiae; Dose 0.00025 μg/bottle, Strain Tested F123, Time 24 hours
  KDR Resisant An. Gambiae (% dead (SE)): 37%
KDR Resisant An. Gambiae; Dose 0.0025 μg/bottle, Strain Tested F122, Time 1 hour
  KDR Resisant An. Gambiae (% dead (SE)): 100%
KDR Resisant An. Gambiae; Dose 0.0025 μg/bottle, Strain Tested F122, Time 24 hours
  KDR Resisant An. Gambiae (% dead (SE)): 66%
KDR Resisant An. Gambiae; Dose 0.0025 μg/bottle, Strain Tested F123, Time 1 hour
  KDR Resisant An. Gambiae (% dead (SE)): 92%
KDR Resisant An. Gambiae; Dose 0.0025 μg/bottle, Strain Tested F123, Time 24 hours
  KDR Resisant An. Gambiae (% dead (SE)): 100%
KDR Resisant An. Gambiae; Dose 0.025 μg/bottle, Strain Tested F122, Time 1 hour
  KDR Resisant An. Gambiae (% dead (SE)): 100%
KDR Resisant An. Gambiae; Dose 0.025 μg/bottle, Strain Tested F122, Time 24 hours
  KDR Resisant An. Gambiae (% dead (SE)): 100%
KDR Resisant An. Gambiae; Dose 0.025 μg/bottle, Strain Tested F123, Time 1 hour
  KDR Resisant An. Gambiae (% dead (SE)): 100%
KDR Resisant An. Gambiae; Dose 0.025 μg/bottle, Strain Tested F123, Time 24 hours
  KDR Resisant An. Gambiae (% dead (SE)): 100%
KDR Resisant An. Gambiae; Dose 0.25 μg/bottle, Strain Tested F122, Time 1 hour
  KDR Resisant An. Gambiae (% dead (SE)): 100%
KDR Resisant An. Gambiae; Dose 0.25 μg/bottle, Strain Tested F122, Time 24 hours
  KDR Resisant An. Gambiae (% dead (SE)): 100%
KDR Resisant An. Gambiae; Dose 0.25 μg/bottle, Strain Tested F123, Time 1 hour
  KDR Resisant An. Gambiae (% dead (SE)): 100%
KDR Resisant An. Gambiae; Dose 0.25 μg/bottle, Strain Tested F123, Time 24 hours
  KDR Resisant An. Gambiae (% dead (SE)): 100%
KDR Resisant An. Gambiae; Dose 2.5 μg/bottle, Strain Tested F122, Time 1 hour
  KDR Resisant An. Gambiae (% dead (SE)): 100%
KDR Resisant An. Gambiae; Dose 2.5 μg/bottle, Strain Tested F122, Time 24 hours
  KDR Resisant An. Gambiae (% dead (SE)): 100%
KDR Resisant An. Gambiae; Dose 2.5 μg/bottle, Strain Tested F123, Time 1 hour
  KDR Resisant An. Gambiae (% dead (SE)): 100%
KDR Resisant An. Gambiae; Dose 2.5 μg/bottle, Strain Tested F123, Time 24 hours
  KDR Resisant An. Gambiae (% dead (SE)): 100%
KDR Resisant An. Gambiae; Dose 25 μg/bottle, Strain Tested F123, Time 1 hour
  KDR Resisant An. Gambiae (% dead (SE)): 100%
KDR Resisant An. Gambiae; Dose 25 μg/bottle, Strain Tested F123, Time 24 hours
  KDR Resisant An. Gambiae (% dead (SE)): 100%
KDR Resisant An. Gambiae; summary of Table 3
  effectiveness against knockdown resistant strains: effective against knockdown resistant strains
